Laboratory results taken from patent US20160022714A1, “O-GLCNACYLATION TREATMENT FOR ISCHEMIC BRAIN INJURY” (THE RESEARCH FOUNDATION FOR MENTAL HYGIENE, INC., priority 2014, published 2016).
Entries after “also recorded” stand apart in the source; their conditions may differ.

How the values were obtained:
[1] = test system: O-GlcNAcylation of brain proteins; test: Western blots for O-GlcNAcylation of brain (striatum) homogenates from drug-treated mice 2 hrs after MCAO; format: in vivo, mouse; settings: for brain O-GlcNAcylation level (change): mice treated prior to ischemia: DON 2.6 μg/mouse, glucosamine 10 mg/mouse, thiamet-G 160 μg/mouse, brain samples 2 hrs after ischemic insult
[2] = test system: MCAO mouse model (cerebral ischemia-reperfusion injury); test: Brain infarct size by TTC staining after MCAO for 2 hrs followed by reperfusion for 24 hrs; format: in vivo; settings: vs. saline; for infarct size / ischemia-induced brain damage: DON 2.6 μg/mouse, glucosamine 10 mg/mouse, thiamet-G 160 μg/mouse prior to ischemia, 24 hrs after ischemia-reperfusion
[3] = test system: MCAO mouse model (cerebral ischemia-reperfusion injury); test: Scores of motor deficits (5-point neurological scoring) after MCAO for 2 hrs and reperfusion for 1 hr; format: in vivo; settings: vs. saline
[4] = DON 2.6 μg/mouse, glucosamine 10 mg/mouse, thiamet-G 160 μg/mouse prior to ischemia, one hour after ischemia-reperfusion

| SMILES | brain O-GlcNAcylation level (change) [1] | infarct size / ischemia-induced brain damage [2] | motor deficits [3, 4] | elevation of O-GlcNAcylation ([1]; thiamet-G 0.1 μg/mouse, icy injection 24 hrs before MCAO, compared with 10 mg glucosamine/mouse i.p.) | elevation of O-GlcNAcylation ([1]; thiamet-G initial dose 160 μg/mouse, 2 hrs after MCAO) | infarct size ([2]; thiamet-G 0.1 μg/mouse, icy injection, MCAO 2 hrs, reperfusion 24 hrs) | motor deficits ([3]; thiamet-G 0.1 μg/mouse, icy injection, MCAO 2 hrs, reperfusion 1 hr) |
| --- | --- | --- | --- | --- | --- | --- | --- |
| N[C@H]1C(O)O[C@H](CO)[C@@H](O)[C@@H]1O (stereo partly shown) [glucosamine] | moderate elevation | ameliorated; also recorded: reduced | ameliorated; also recorded: reduced |  |  |  |  |
| [N-]=[N+]=CC(=O)CC[C@H](N)C(=O)O [DON, 6-diazo-5-oxonorleucine] | reduction; also recorded: reduced | aggravated; also recorded: increased | aggravated; also recorded: increased |  |  |  |  |
| CCN=C1N[C@@H]2[C@@H](O)[C@H](O)[C@@H](CO)O[C@@H]2S1 [thiamet-G] | elevation | more severe brain damage; also recorded: worsened | more severe; also recorded: worsened | comparable elevation | > 6 fold | reduced | reduced |
